This assay has as its target T1, MLLT1 (Homo sapiens, UniProt Q03111).
T1 construct: endogenous in cells; host or cells: MV4-11 (ATCC CRL-9591)
T1 sequence (Q03111 1-559): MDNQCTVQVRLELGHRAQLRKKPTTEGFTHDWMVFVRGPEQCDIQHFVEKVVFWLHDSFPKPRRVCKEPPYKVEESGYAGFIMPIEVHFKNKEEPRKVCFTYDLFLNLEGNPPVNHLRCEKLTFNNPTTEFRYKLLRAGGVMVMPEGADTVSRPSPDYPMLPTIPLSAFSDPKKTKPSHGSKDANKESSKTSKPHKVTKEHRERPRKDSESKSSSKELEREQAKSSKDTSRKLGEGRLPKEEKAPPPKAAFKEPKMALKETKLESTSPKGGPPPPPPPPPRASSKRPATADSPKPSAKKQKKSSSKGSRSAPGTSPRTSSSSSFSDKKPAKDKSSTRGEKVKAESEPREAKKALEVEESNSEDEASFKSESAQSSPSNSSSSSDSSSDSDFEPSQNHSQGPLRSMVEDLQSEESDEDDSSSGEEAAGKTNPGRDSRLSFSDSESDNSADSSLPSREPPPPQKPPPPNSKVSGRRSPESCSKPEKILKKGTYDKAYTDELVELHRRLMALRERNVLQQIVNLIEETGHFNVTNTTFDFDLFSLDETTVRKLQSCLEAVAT
Nature of the assay: MLLT1 degradation assay (JESS automated chemiluminescent detection) in MV4-11 cells. The format is cell-based. To be noted: 24h, with respect to DMSO control. The protocol:
MLLT1 degradation efficacy of compounds was tested in an automated chemiluminescent detection system (JESS, Cat# 004-650). MV4-11 (#CRL-9591, ATCC) cells were seeded at a density of 1.2 million cells/well in a non-treated 6-well cell culture plate in 2.4 mL of complete medium (IMDM + 10% FBS + 1X Penicillin-Streptomycin). 10 mM DMSO stocks were prepared, and cells were treated with three concentrations of test compounds viz. 1000, 100 and 10 nM at a final DMSO concentration of 0.1% and incubated for 24h at 37°C, 5% CO2. Post incubation, cells were centrifuged, washed with HBSS and lysed in 70 uL of RIPA buffer supplemented with Protease inhibitors (sc-24948; Santa Cruz). Subsequently, protein estimation was done using BCA protein assay kit (23225; Pierce). 4 ug protein lysate (4 uL of 1ug/uL lysate) was loaded into each well of the JESS cartridge (SM-WO01; Bio-techne) and the JESS run was performed using 1:900 dilution of anti-human MLLT1 antibody (14893; Cell signaling technology) and 1:1200 dilution of anti-human GAPDH antibody (2118; Cell signaling technology) with anti-rabbit secondary detection module (DM-001; Bio-Techne). Post run, data were analysed using "Compass for SW" software for chemiluminescent detection. The peak area for each band was used for the calculation of MLLT1 degradation with respect to DMSO control. Data is shown as "MLLT1 % degradation". Category A: A ≥ 75% degradation Category B: 50% ≤ B < 75% degradation Category C: 25% ≤ C < 50% degradation Category D: D < 25% degradation Table 1

Where only a bound is given, the exact number is not on record here.

Compound `Cc1c(OCCCCCCCCn2nc(C)c3ccc(C(=O)Nc4cc5[nH]c([C@H]6CCCN6C)cc5cn4)cc32)cccc1N1CCC(=O)NC1=O` [Example 9, 1-{8-[3-(2,4-dioxo-1,3-diazinan-1-yl)-2-methylphenoxy]octyl}-3-methyl-N-{2-[(2R)-1-methylpyrrolidin-2-yl]-1H-pyrrolo[3,2-c]pyridin-6-yl}indazole-6-carboxamide] returned an inhibition at 0.01 µM below 25%, an inhibition at 0.1 µM of 25 to 50% and an inhibition at 1 µM of at least 75%.
Taken in the same sequence, the figures for `Cc1nn(CCCCCC#Cc2cccc3c2n(C)c(=O)n3C2CCC(=O)NC2=O)c2cc(C(=O)Nc3cc4[nH]c([C@H]5CCCN5C)cc4cn3)ccc12` (stereo partly drawn) [Example 11, 1-{7-[1-(2,6-dioxopiperidin-3-yl)-3-methyl-2-oxo-1,3-benzodiazol-4-yl]hept-6-yn-1-yl}-3-methyl-N-{2-[(2R)-1-methylpyrrolidin-2-yl]-1H-pyrrolo[3,2-c]pyridin-6-yl}indazole-6-carboxamide] were 50 to 75%, 50 to 75% and 50 to 75%.
`Cc1nn(CCCCCCCC#Cc2cccc(C(=O)N[C@H]3CCC(=O)NC3=O)c2F)c2cc(C(=O)Nc3cc4[nH]c([C@H]5CCCN5C)cc4cn3)ccc12` [Example 51, 1-(9-(3-(((S)-2,6-dioxopiperidin-3-yl)carbamoyl)-2-fluorophenyl)non-8-yn-1-yl)-3-methyl-N-(2-((R)-1-methylpyrrolidin-2-yl)-1H-pyrrolo[3,2-c]pyridin-6-yl)-1H-indazole-6-carboxamide] yielded an inhibition at 0.01 µM of 25 to 50%, an inhibition at 0.1 µM of 50 to 75% and an inhibition at 1 µM of at least 75%.
Taken in the same sequence, the figures for `Cc1nn(C2CCN(CC3CCN(c4cccc5c4C(=O)N(C4CCC(=O)NC4=O)C5=O)CC3)CC2)c2cc(C(=O)Nc3cc4[nH]c([C@H]5CCCN5C)cc4cn3)ccc12` (stereo partly drawn) [Example 71, 1-(1-((1-(2-(2,6-dioxopiperidin-3-yl)-1,3-dioxoisoindolin-4-yl)piperidin-4-yl)methyl)piperidin-4-yl)-3-methyl-N-(2-((R)-1-methylpyrrolidin-2-yl)-1H-pyrrolo[3,2-c]pyridin-6-yl)-1H-indazole-6-carboxamide] were 50 to 75%, at least 75% and at least 75%.
`Cc1nn(CC#Cc2cccc3c2CN(C2CCC(=O)NC2=O)C3=O)c2cc(C(=O)Nc3cc4[nH]c([C@H]5CCCN5C)cc4cn3)ccc12` (stereo partly drawn) [Example 72, 1-(3-(2-(2,6-dioxopiperidin-3-yl)-1-oxoisoindolin-4-yl)prop-2-yn-1-yl)-3-methyl-N (2-((R)-1-methylpyrrolidin-2-yl)-1H pyrrolo[3,2-c]pyridin-6-yl)-1H-indazole-6-carboxamide] had an inhibition at 0.01 µM of at least 75%, an inhibition at 0.1 µM of at least 75% and an inhibition at 1 µM of 50 to 75%.
Compound `Cc1nn(CCCCCCCC#Cc2ccc(F)c3c2CN(C2CCC(=O)NC2=O)C3=O)c2cc(C(=O)Nc3cc4[nH]c([C@H]5CCCN5C)c(Cl)c4cn3)ccc12` (stereo partly drawn) [Example 67, N-(3-chloro-2-((R)-1-methylpyrrolidin-2-yl)-1H-pyrrolo[3,2-c]pyridin-6-yl)-1-(9-(2-(2,6-dioxopiperidin-3-yl)-7-fluoro-1-oxoisoindolin-4-yl)non-8-yn-1-yl)-3-methyl-1H indazole-6-carboxamide] yielded an inhibition at 0.01 µM of at least 75%, an inhibition at 0.1 µM of at least 75% and an inhibition at 1 µM of at least 75%.
For the compound `Cc1nn(CCCCCCCC#Cc2cccc(N3CCC(=O)NC3=O)c2F)c2cc(C(=O)Nc3cc4[nH]c([C@H]5CCCN5C)cc4cn3)ccc12` [Example 63, (R)-1-(9-(3-(2,4-dioxotetrahydropyrimidin-1(2H)-yl)-2-fluorophenyl)non-8-yn-1-yl)-3-methyl-N-(2-(1-methylpyrrolidin-2-yl)-1H-pyrrolo [3,2-c]pyridin-6-yl)-1H-indazole-6-carboxamide], the inhibition at 0.01 µM is below 25%, the inhibition at 0.1 µM was 50 to 75% and the inhibition at 1 µM is at least 75%.
Taken in the same sequence, the figures for `Cc1nn(CCCCCCCC#Cc2cccc3c2CN(C2CCC(=O)NC2=O)C3=O)c2cc(C(=O)Nc3cc4[nH]c([C@H]5CCCN5C)cc4cn3)c(F)cc12` (stereo partly drawn) [Example 58, 1-(9-(2-(2,6-dioxopiperidin-3-yl)-1-oxoisoindolin-4-yl)non-8-yn-1-yl)-5-fluoro-3-methyl-N-(2-((R)-1-methylpyrrolidin-2-yl)-1H-pyrrolo[3,2-c]pyridin-6-yl)-1H-indazole-6-carboxamide] were at least 75%, at least 75% and at least 75%.
Taken in the same sequence, the figures for `Cc1nn(CCCCCC2CCN(c3cccc4c3C(=O)N(C3CCC(=O)NC3=O)C4=O)CC2)c2cc(C(=O)Nc3cc4[nH]c([C@H]5CCCN5C)cc4cn3)ccc12` (stereo partly drawn) [Example 29, 1-(5-(1-(2-(2,6-dioxopiperidin-3-yl)-1,3-dioxoisoindolin-4-yl)piperidin-4-yl)pentyl)-3-methyl-N-(2-((R)-1-methylpyrrolidin-2-yl)-1H-pyrrolo[3,2-c]pyridin-6-yl)-1H-indazole-6-carboxamide] were 50 to 75%, at least 75% and at least 75%.
On the same counts, the results for `CN1CCC[C@@H]1c1cc2cnc(NC(=O)c3ccc4c(cnn4CCCCCCCCNc4cccc5c4C(=O)N(C4CCC(=O)NC4=O)C5=O)c3)cc2[nH]1` (stereo partly drawn) [Example 36, 1-(8-((2-(2,6-dioxopiperidin-3-yl)-1,3-dioxoisoindolin-4-yl)amino)octyl)-N-(2-((R)-1-methylpyrrolidin-2-yl)-1H-pyrrolo[3,2-c]pyridin-6-yl)-1H-indazole-5-carboxamide] are at least 75%, at least 75% and at least 75%.
On to `Cc1nn(CCCCCCCC#Cc2ccc(F)c3c2CN(C2CCC(=O)NC2=O)C3=O)c2cc(C(=O)Nc3cc4[nH]c([C@H]5CCCN5C)cc4cn3)ccc12` (stereo partly drawn) [Example 52, 1-(9-(2-(2,6-dioxopiperidin-3-yl)-7-fluoro-1-oxoisoindolin-4-yl)non-8-yn-1-yl)-3-methyl-N-(2-((R)-1-methylpyrrolidin-2-yl)-1H-pyrrolo[3,2-c]pyridin-6-yl)-1H-indazole-6-carboxamide], for which the inhibition at 0.01 µM is at least 75%, the inhibition at 0.1 µM is at least 75% and the inhibition at 1 µM was at least 75%.
As to `CN1CCC[C@@H]1c1cc2cnc(NC(=O)c3ccc4c(cnn4CCCCCCCC#Cc4cccc5c4CN(C4CCC(=O)NC4=O)C5=O)c3)cc2[nH]1` (stereo partly drawn) [Example 38, 1-(9-(2-(2,6-dioxopiperidin-3-yl)-1-oxoisoindolin-4-yl)non-8-yn-1-yl)-N-(2-((R)-1-methylpyrrolidin-2-yl)-1H-pyrrolo[3,2-c]pyridin-6-yl)-1H-indazole-5-carboxamide], the inhibition at 0.01 µM lay in the range of 50 to 75%, the inhibition at 0.1 µM was at least 75% and the inhibition at 1 µM lay in the range of 50 to 75%.
As for `CN1CCC[C@@H]1c1cc2cnc(NC(=O)c3ccc4c(C5CC5)nn(CCCCCCCC#Cc5cccc6c5CN(C5CCC(=O)NC5=O)C6=O)c4c3)cc2[nH]1` (stereo partly drawn) [Example 59, 3-cyclopropyl-1-(9-(2-(2,6-dioxopiperidin-3-yl)-1-oxoisoindolin-4-yl)non-8-yn-1-yl)-N-(2-((R)-1-methylpyrrolidin-2-yl)-1H-pyrrolo [3,2-c]pyridin-6-yl)-1H-indazole-6-carboxamide], the inhibition at 0.01 µM is at least 75%, the inhibition at 0.1 µM was at least 75% and the inhibition at 1 µM is at least 75%.
`Cc1nn(CCCCN2CCN(c3ccc4c(c3)C(=O)N(C3CCC(=O)NC3=O)C4=O)CC2)c2cc(C(=O)Nc3cc4[nH]c([C@@H]5CCCN5C)cc4cn3)ccc12` (stereo partly drawn) [Example 20, 1-(4-{4-[2-(2,6-dioxopiperidin-3-yl)-1,3-dioxoisoindol-5-yl]piperazin-1-yl}butyl)-3-methyl-N-{2-[(2S)-1-methylpyrrolidin-2-yl]-1H-pyrrolo[3,2-c]pyridin-6-yl}indazole-6-carboxamide]: the inhibition at 0.01 µM was in the range of 25 to 50%, the inhibition at 0.1 µM lay in the range of 25 to 50% and the inhibition at 1 µM was at least 75%.

The values are drawn from patent EP4667466A1, “PROTAC DEGRADERS OF MLLT1 AND/OR MLLT3” (priority 2024, dated 2025).
